{
  "source": "patent US20090209474A1",
  "about": "“NOVEL USES FOR DRUGS TARGETING GLUTAMINE SYNTHETASE” (NEWTHERA, priority 2005, published 2009)",
  "key": {"purified sheep brain GS [1]": {"system": "purified sheep brain GS", "details": "Rueppel et al., 1972; cited from earlier work"}, "purified sheep brain GS [2]": {"system": "purified sheep brain GS", "experiment": "Purified sheep brain GS activity (Meister's method, gamma-glutamylhydroxamate formation)", "type": "biochemical", "details": "for effect on GS subunit (monomer) activity: in presence of 2β-ME (DTT for tianeptine)"}, "CA3 pyramidal neurons": {"system": "CA3 pyramidal neurons", "experiment": "Surface of CA3 pyramidal neurons (Golgi) in corticosterone-administered rats", "type": "in vivo, Wistar rats", "details": "21 days"}, "rat lung GS protein": {"system": "rat lung GS protein", "details": "cited from earlier work"}, "M. tuberculosis": {"system": "M. tuberculosis", "details": "MS with isoniazid (INH); cited from earlier work"}, "bacterial GS": {"target": "bacterial GS (Mycobacterium tuberculosis, UniProt P9WN39)", "sequence (P9WN39 whole entry)": "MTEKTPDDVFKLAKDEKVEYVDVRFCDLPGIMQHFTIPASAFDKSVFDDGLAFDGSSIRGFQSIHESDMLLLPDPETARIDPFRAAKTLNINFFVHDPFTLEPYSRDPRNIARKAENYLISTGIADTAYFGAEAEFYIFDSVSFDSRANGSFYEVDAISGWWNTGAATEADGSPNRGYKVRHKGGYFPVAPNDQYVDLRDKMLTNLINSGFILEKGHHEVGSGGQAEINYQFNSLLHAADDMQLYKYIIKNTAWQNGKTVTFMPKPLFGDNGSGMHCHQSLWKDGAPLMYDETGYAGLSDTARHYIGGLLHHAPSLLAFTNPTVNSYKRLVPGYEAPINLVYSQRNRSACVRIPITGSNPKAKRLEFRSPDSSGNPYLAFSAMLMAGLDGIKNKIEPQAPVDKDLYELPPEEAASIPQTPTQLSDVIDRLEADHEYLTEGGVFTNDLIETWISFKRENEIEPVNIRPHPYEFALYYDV", "details": "cited from earlier work"}, "GS [3]": {"system": "GS", "details": "rat, in vivo"}, "GS [4]": {"system": "GS", "details": "literature (Meister 1985; Eisenberg et al., 2000); cited from earlier work"}, "brain GS [5]": {"target": "T1, brain GS (Mus musculus, UniProt P15105)", "T1 sequence (P15105 2-373 limits assumed)": "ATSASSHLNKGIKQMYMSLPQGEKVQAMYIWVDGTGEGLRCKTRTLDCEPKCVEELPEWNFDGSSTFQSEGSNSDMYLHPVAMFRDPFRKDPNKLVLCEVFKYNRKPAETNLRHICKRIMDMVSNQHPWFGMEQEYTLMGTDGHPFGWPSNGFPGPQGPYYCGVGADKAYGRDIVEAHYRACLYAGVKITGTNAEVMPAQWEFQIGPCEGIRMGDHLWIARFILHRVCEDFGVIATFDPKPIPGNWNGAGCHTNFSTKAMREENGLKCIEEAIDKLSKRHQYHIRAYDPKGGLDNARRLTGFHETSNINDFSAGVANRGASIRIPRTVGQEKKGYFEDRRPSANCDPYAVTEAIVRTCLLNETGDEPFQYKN", "details": "24 h after single i.p."}, "pathogenic mycobacteria": {"system": "pathogenic mycobacteria", "details": "cited from earlier work"}, "brain GS [6]": {"target": "T1, brain GS", "details": "i.p. 7 days"}, "[7]": {"system": "glucocorticoid receptor (GR)", "experiment": "Brain glucocorticoid receptor expression by ELISA in corticosterone-administered rats", "type": "in vivo, Wistar rats"}, "Wistar rats [8]": {"system": "Wistar rats", "experiment": "Forced swimming test in corticosterone-administered rats", "type": "in vivo", "details": "day 19, corticosterone 35 mg/kg s.c.; versus PCB and Control"}, "GS [9]": {"target": "GS (Rattus norvegicus, UniProt P09606)", "sequence (P09606 2-373 limits assumed)": "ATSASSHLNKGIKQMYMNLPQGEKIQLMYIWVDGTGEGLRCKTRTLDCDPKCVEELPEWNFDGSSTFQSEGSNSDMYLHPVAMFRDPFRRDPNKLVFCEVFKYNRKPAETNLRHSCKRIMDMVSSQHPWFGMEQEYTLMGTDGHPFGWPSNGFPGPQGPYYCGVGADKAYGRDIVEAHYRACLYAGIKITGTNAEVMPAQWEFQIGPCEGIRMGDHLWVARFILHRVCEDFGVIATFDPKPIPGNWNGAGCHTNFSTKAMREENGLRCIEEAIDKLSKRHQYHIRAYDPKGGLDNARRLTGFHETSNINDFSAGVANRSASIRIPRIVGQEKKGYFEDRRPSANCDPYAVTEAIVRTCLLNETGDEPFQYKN"}, "Wistar rats [10]": {"system": "Wistar rats", "experiment": "Open field task in corticosterone-administered rats", "type": "in vivo"}, "[11]": {"experiment": "Adrenal weight in corticosterone-administered rats", "type": "in vivo, Wistar rats", "details": "21 days, versus PCB"}, "[12]": {"details": "21 days, versus PCB and Control"}},
  "note": "Entries after “also recorded” stand apart in the source; their conditions may differ. Read-outs that look alike come from different tables or passages of the source.",
  "data": [
    {"compound": "CC(C)NNC(=O)c1ccncc1", "note": "[iproniazid, Iproniazid]", "values": [
      {"measurement": "type of competition", "setting": "purified sheep brain GS [1]", "result": "competes with hydroxylamine on the NH4 site"},
      {"measurement": "tested on GS activity: ligand or not", "setting": "purified sheep brain GS [2]", "result": "GS ligands"},
      {"measurement": "effect on GS subunit (monomer) activity", "setting": "purified sheep brain GS [2]", "result": "inhibit GS activity at “high” concentrations"}
    ]},
    {"compound": "CS(=N)(=O)CC[C@H](N)C(=O)O", "note": "(stereo partly shown) [MS, 2-amino-4-(S-methylsulfonimidosyl)butanoic acid]", "values": [
      {"measurement": "dose with the best protective effects on CA3 pyramidal neurons", "setting": "CA3 pyramidal neurons", "result": 15, "unit": "mg/kg"},
      {"measurement": "augmentation of rat lung GS protein levels", "setting": "rat lung GS protein; MS 100 mg/kg", "result": 4, "unit": "fold"},
      {"measurement": "augmentation of rat lung GS protein levels", "setting": "rat lung GS protein; combination MS 100 mg/kg and dexamethasone 0.5 mg/kg", "result": 12, "unit": "fold"},
      {"measurement": "reduction of CFU in guinea pig organs below the level attained with INH alone", "setting": "M. tuberculosis", "result": "~1.5", "unit": "log units"},
      {"measurement": "greater sensitivity to MS of bacterial GS than of mammalian GS", "setting": "bacterial GS", "result": 100, "unit": "fold"},
      {"measurement": "brain GS expression", "setting": "GS [3]", "result": "higher"},
      {"measurement": "nature of the binding to GS", "setting": "GS [4]", "result": "non-selective, irreversible GS ligand; also recorded: bind GS irreversibly"},
      {"measurement": "dose relation of effects on GS activity and GS expression", "setting": "brain GS [5]", "result": "dose-dependent"},
      {"measurement": "dose with the highest GS activity", "setting": "brain GS [5]", "result": 0.312, "unit": "mg/kg"},
      {"measurement": "whole brain GS activity", "setting": "brain GS [5]; 0.078-20 mg/kg", "result": "increase GS activity"},
      {"measurement": "effect on mycobacterium growth", "setting": "pathogenic mycobacteria", "result": "block the growth"},
      {"measurement": "whole brain GS activity", "setting": "brain GS [6]; MS 0.5, 15, 45 mg/kg", "result": "decreased GS activity proportionally the dose"},
      {"measurement": "dose relation of effects on GS activity and GS expression", "setting": "brain GS [6]", "result": "dose-dependent"},
      {"measurement": "brain GR expression", "setting": "[7]; GF 0.1 and 3 mg/kg, MS 0.5, 15 and 45 mg/kg, tianeptine 0.5 mg/kg, versus PCB", "result": "higher"},
      {"measurement": "dose relation of the increase in GR expression", "setting": "[7]; rat, in vivo", "result": "proportional to the dose"},
      {"measurement": "immobility in the forced swimming test", "setting": "Wistar rats [8]", "result": "comparable or lower"},
      {"measurement": "lung GS activity", "setting": "GS [9]; 21 days, most rats, versus PCB", "result": "decrease in lung GS activity"},
      {"measurement": "brain GS activity", "setting": "GS [9]; [12]", "result": "dose-dependent decrease"},
      {"measurement": "liver GS activity", "setting": "GS [9]; [12]", "result": "clear decrease"},
      {"measurement": "brain GS activity", "setting": "GS [9]; MS at the and 45 mg/kg doses", "result": "lowest GS activities"},
      {"measurement": "dose relation of the increase in resting time", "setting": "Wistar rats [10]; day 15", "result": "proportional to the dose"},
      {"measurement": "resting time in the open field task", "setting": "Wistar rats [10]; day 15, corticosterone 35 mg/kg s.c., versus PCB and Control", "result": "higher"},
      {"measurement": "adrenal weight", "setting": "[11]", "result": "higher"},
      {"measurement": "type of competition", "setting": "purified sheep brain GS [2]", "result": "competitive with L-glutamine"},
      {"measurement": "effect on GS subunit (monomer) activity", "setting": "purified sheep brain GS [2]", "result": "inhibit GS activity at “high” concentrations"}
    ]}
  ]
}
